Assays:
[1] = molecular target: T1, Muscarinic acetylcholine receptor M1 (Homo sapiens) (UniProt P11229); experiment: Positive allosteric modulation at muscarinic acetylcholine receptor M1(unknown origin) relative to control
T1 sequence (whole entry): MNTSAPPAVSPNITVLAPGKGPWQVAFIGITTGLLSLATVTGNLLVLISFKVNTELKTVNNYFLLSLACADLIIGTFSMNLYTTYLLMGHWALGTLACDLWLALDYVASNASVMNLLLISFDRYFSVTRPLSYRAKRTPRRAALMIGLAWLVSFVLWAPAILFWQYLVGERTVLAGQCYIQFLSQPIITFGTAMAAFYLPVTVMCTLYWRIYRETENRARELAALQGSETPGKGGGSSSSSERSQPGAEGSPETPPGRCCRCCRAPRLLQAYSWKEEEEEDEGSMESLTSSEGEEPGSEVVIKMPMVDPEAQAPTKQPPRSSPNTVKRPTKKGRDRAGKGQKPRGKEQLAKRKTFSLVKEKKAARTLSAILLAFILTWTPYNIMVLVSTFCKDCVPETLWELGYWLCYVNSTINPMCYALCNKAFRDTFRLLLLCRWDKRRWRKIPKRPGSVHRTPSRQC

[2] = molecular target: T2, Muscarinic acetylcholine receptor M1 (Homo sapiens, UniProt P11229); experiment: Positive allosteric modulation at muscarinic acetylcholine receptor M1(unknown origin)
T2 sequence (P11229 whole entry): T1 sequence (whole entry)

SMILES	Emax [1] [%]	EC50 [2] [µM]
Cn1cc(-c2ccc(CN3C(=O)C4(OCCO4)c4ccccc43)c(F)c2)cn1	86	3.2
CN1CCC2(C1)C(=O)N(Cc1ccc(-c3cnn(C)c3)cc1F)c1ccccc12 (centres undefined)	76	3.8

Source: ChEMBL document CHEMBL2429785, “Substituted Benzylspiroindolin-2-one Analogues as Positive Allosteric Modulators of the Muscarinic Acetylcholine Receptor M1” (ACS Med Chem Lett, 2013)
